# Experimental data as given in patent US20220324835A1 (Nurix Therapeutics, Inc., priority 2018, published 2022).
# Where two headings read alike, the source gives them in different places.
# How the values were obtained:
# [1] = target: T1, Cbl-b (Homo sapiens, UniProt Q13191); experiment: Cbl-b inhibition assay (Cbl-b activity assay, FRET, Biological Example 1; 100 mM NaCl, 60 nM Src kinase); assay type: biochemical; conditions: upper bound stated in text lists; read-out: IC50 values in the Cbl-b inhibition assay of Biological Example 1
# Outline: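 Here, the E2 UbcH5B, irreversibly linked to Bodipy-fluorescein ubiquitin, binds Cbl-b once Src kinase phosphorylates it; Cbl-b carries an N-terminal biotinylated Avi-tag captured by streptavidin-terbium. An absent FRET signal indicates inhibition.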
# [2] = system: T-cell; experiment: IL-2 secretion from T-cells co-stimulated with anti-CD3 and anti-CD28 antibody (Biological Example 2); assay type: cell-based, human; conditions: Homo sapiens, T-cell
# Outline: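 No assay protocol given; T-cells stimulated with anti-CD3 alone or anti-CD3 plus anti-CD28, with or without Cbl-b inhibitor. Activation read as IL-2 secretion or CD25 surface staining, expressed as fold over baseline from uninhibited cells […].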
# [3] = system: T-cell; experiment: CD25 cell surface staining on T-cells stimulated with anti-CD3 antibody alone (Biological Example 2); assay type: cell-based, human; conditions: T-cell, read-out: CD25 staining Anti-CD3 stimulation; for fold induction at 1 µM: 1 μM Cbl-b inhibitor; for fold induction at 8 µM: 8 μM Cbl-b inhibitor
# [4] = target: T1, Cbl-b; experiment: Cbl-b activity assay (Cbl-b inhibition assay), TR-FRET of Cbl-b interaction with UbcH5B-Ub; assay type: biochemical; conditions: assay buffer with 100 mM NaCl, 60 nM Src kinase; read-out: Cbl-b activity IC50
# Outline: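 TR-FRET readout of Cbl-b binding to Bodipy-fluorescein N-terminally labeled Ub conjugated to UbcH5B C85K, measured with compound present. After compound incubation, 60 nM Src kinase with 1 mM ATP and 5 mM MgCl2 (final) was added for 1.5 h, then a further 1 h incubation; asterisked values used 50 mM NaCl buffer and 30 nM Src.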
# [5] = system: T-cell; experiment: IL-2 secretion from T-cells stimulated with anti-CD3 antibody alone (Biological Example 2); assay type: cell-based, human; conditions: T-cell, read-out: IL-2 secretion Anti-CD3 stimulation; for fold induction at 1 µM: 1 μM Cbl-b inhibitor; for fold induction at 8 µM: 8 μM Cbl-b inhibitor
# [6] = 0.3 μM Cbl-b inhibitor, fold change over baseline (anti-CD3/anti-CD28 stimulated T-cells without inhibitor), read-out: IL-2 secretion Anti-CD3/Anti-CD28 stimulation
# [7] = 1 μM Cbl-b inhibitor, fold change over baseline (anti-CD3/anti-CD28 stimulated T-cells without inhibitor), read-out: IL-2 secretion Anti-CD3/Anti-CD28 stimulation
# [8] = Homo sapiens, fold change over baseline (anti-CD3/anti-CD28 stimulated T-cells without inhibitor)
# [9] = fold change over baseline, 0.3 μM Cbl-b inhibitor, primary human total T-cells, read-out: IL-2 secretion Anti-CD3/Anti-CD28 stimulation
# [10] = fold change over baseline, 1 μM Cbl-b inhibitor, primary human total T-cells, read-out: IL-2 secretion Anti-CD3/Anti-CD28 stimulation
# [11] = fold change over baseline, 4 μM Cbl-b inhibitor, primary human total T-cells, read-out: IL-2 secretion Anti-CD3/Anti-CD28 stimulation
# [12] = fold change over baseline, primary human total T-cells
# [13] = 0.3 μM compound, primary human total T-cells, baseline = anti-CD3/anti-CD28 stimulated cells without inhibitor, read-out: IL-2 secretion, Anti-CD3/Anti-CD28 stimulation, fold change over baseline
# [14] = 1 μM compound, primary human total T-cells, baseline = anti-CD3/anti-CD28 stimulated cells without inhibitor, read-out: IL-2 secretion, Anti-CD3/Anti-CD28 stimulation, fold change over baseline
# [15] = 4 μM compound, primary human total T-cells, baseline = anti-CD3/anti-CD28 stimulated cells without inhibitor, read-out: IL-2 secretion, Anti-CD3/Anti-CD28 stimulation, fold change over baseline
# T1 sequence (Q13191 36-427): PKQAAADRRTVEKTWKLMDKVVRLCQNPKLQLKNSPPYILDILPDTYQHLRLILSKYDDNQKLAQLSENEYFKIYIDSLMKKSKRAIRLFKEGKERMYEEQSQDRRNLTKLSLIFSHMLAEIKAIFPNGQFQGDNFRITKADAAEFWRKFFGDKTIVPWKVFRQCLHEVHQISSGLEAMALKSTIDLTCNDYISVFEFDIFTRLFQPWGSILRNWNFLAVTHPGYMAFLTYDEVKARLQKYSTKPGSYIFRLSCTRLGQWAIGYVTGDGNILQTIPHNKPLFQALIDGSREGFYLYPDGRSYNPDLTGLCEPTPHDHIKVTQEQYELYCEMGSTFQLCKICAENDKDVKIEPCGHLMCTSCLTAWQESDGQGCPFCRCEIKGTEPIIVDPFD
Structure (SMILES),IC50 [1] [nM],"fold induction at 0.3 µM [2, 6]","fold induction at 1 µM [2, 7]","fold induction at 1 µM [3, 8]",IC50 [4] [nM],"fold induction at 1 µM [5, 8]","fold induction at 0.3 µM [2, 9]","fold induction at 1 µM [2, 10]","fold induction at 4 µM [2, 11]","fold induction at 1 µM [3, 12]","fold induction at 8 µM [3, 12]","fold induction at 1 µM [5, 12]","fold induction at 8 µM [5, 12]","fold induction at 0.3 µM [2, 13]","fold induction at 1 µM [2, 14]","fold induction at 4 µM [2, 15]"
"C[C@H](c1cc2c(c(C(F)(F)F)c1)CN(c1cccc(C3(C(F)(F)c4nncn4C)COC3)c1)C2=O)N1CC[C@H](F)C1 [Example 571, 2-(3-(3-(difluoro(4-methyl-4H-1,2,4-triazol-3-yl)methyl)oxetan-3-yl)phenyl)-6-((R)-1-((S)-3-fluoropyrrolidin-1-yl)ethyl)-4-(trifluoromethyl)isoindolin-1-one]",≤ 100,> 7.5,> 7.5,> 1,< 100,> 0.201,,,,,,,,,,
"Cc1cc(C(=O)Nc2cccc([C@H](C)Sc3nncn3C)c2)nc(C(F)(F)F)c1 [Compound 65, (S)-4-methyl-N-(3-(1-((4-methyl-4H-1,2,4-triazol-3-yl)thio)ethyl)phenyl)-6-(trifluoromethyl)picolinamide]",≤ 100,,,,< 100,,1.01 to 2.5,1.01 to 2.5,2.51 to 5,0.601 to 0.8,> 1,< 0.05,0.101 to 0.15,,,
"Cc1cc(C(=O)Nc2cccc([C@H](C)Cc3nncn3C)c2)nc(C(F)(F)F)n1 [Compound 194, (R)-6-methyl-N-(3-(1-(4-methyl-4H-1,2,4-triazol-3-yl)propan-2-yl)phenyl)-2-(trifluoromethyl)pyrimidine-4-carboxamide]",≤ 100,,,,< 100,,2.51 to 5,> 7.5,> 7.5,0.801 to 1,> 1,> 0.201,> 0.201,,,
"C[C@H](Cc1nncn1C)c1cc(NC2COC2)nc(N2Cc3c(cccc3C(F)(F)F)C2=O)c1 [Compound 352, 2-{4-[(2R)-1-(4-methyl-4H-1,2,4-triazol-3-yl)propan-2-yl]-6-[(oxetan-3-yl)amino]pyridin-2-yl}-4-(trifluoromethyl)-2,3-dihydro-1H-isoindol-1-one]",≤ 100,,,,< 100,,1.01 to 2.5,1.01 to 2.5,5 to 7.5,0.801 to 1,> 1,0.051 to 0.1,> 0.201,,,
"Cn1cnnc1CC1(c2cccc(N3Cc4c(cc(CN5CCC(C)(F)CC5)cc4C(F)(F)F)C3=O)c2)COC1 [Example 620, 6-((4-fluoro-4-methylpiperidin-1-yl)methyl)-2-(3-(3-((4-methyl-4H-1,2,4-triazol-3-yl)methyl)oxetan-3-yl)phenyl)-4-(trifluoromethyl)isoindolin-1-one]",≤ 100,> 7.5,> 7.5,> 1,< 100,> 0.201,,,,,,,,,,
"Cn1cnnc1CC1(c2cccc(N3Cc4c(cc(CN5CC[C@H](C#N)C5)cc4C(F)(F)F)C3=O)c2)COC1 [Compound 422, (S)-1-((2-(3-(3-((4-methyl-4H-1,2,4-triazol-3-yl)methyl)oxetan-3-yl)phenyl)-3-oxo-7-(trifluoromethyl)isoindolin-5-yl)methyl)pyrrolidine-3-carbonitrile]",≤ 100,,,,< 100,,,,,,,,,5 to 7.5,> 7.5,> 7.5
"C[C@@H](c1cc2c(c(C(F)(F)F)c1)CN(c1cccc(C3(Cc4nncn4C)COC3)c1)C2=O)N1C[C@H]2C[C@H]2C1 [Compound 541a, 6-((1S)-1-(3-azabicyclo[3.1.0]hexan-3-yl)ethyl)-2-(3-(3-((4-methyl-4H-1,2,4-triazol-3-yl)methyl)oxetan-3-yl)phenyl)-4-(trifluoromethyl)isoindolin-1-one]",≤ 100,,,,< 100,,,,,,,,,> 7.5,> 7.5,
"Cn1cnnc1C(F)(F)[C@](C)(F)c1cccc(N2Cc3c(cc(N4CCNCC4)cc3C(F)(F)F)C2=O)c1 [Compound 442, (R)-6-(Piperazin-1-yl)-2-(3-(1,1,2-trifluoro-1-(4-methyl-4H-1,2,4-triazol-3-yl)propan-2-yl)phenyl)-4-(trifluoromethyl)isoindolin-1-one]",≤ 100,,,,< 100,,,,,,,,,2.51 to 5,> 7.5,> 7.5
"C[C@H](Cc1nncn1C)c1cccc(NC(=O)c2cc3cc(N4CCNCC4)ccc3cn2)c1 [Compound 472, N-{3-[(2R)-1-(4-methyl-4H-1,2,4-triazol-3-yl)propan-2-yl]phenyl}-6-(piperazin-1-yl)isoquinoline-3-carboxamide]",≤ 100,,,,< 100,,,,,,,,,< 1,1.01 to 2.5,2.51 to 5
"C[C@H](Cc1nncn1C)c1cccc(N2Cc3c(cc(CN4CC[C@H](F)C4)cc3C(F)(F)F)C2=O)c1 [Compound 399, 6-(((S)-3-fluoropyrrolidin-1-yl)methyl)-2-(3-((R)-1-(4-methyl-4H-1,2,4-triazol-3-yl)propan-2-yl)phenyl)-4-(trifluoromethyl)isoindolin-1-one]",≤ 100,,,,< 100,,,,,,,,,5 to 7.5,> 7.5,> 7.5
"Cn1cnnc1CC1(c2cccc(N3Cc4c(cc(CN5CCC[C@H](F)C5)cc4C(F)(F)F)C3=O)c2)COC1 [Compound 432, 6-{[(3S)-3-fluoropiperidin-1-yl]methyl}-2-(3-{3-[(4-methyl-4H-1,2,4-triazol-3-yl)methyl]oxetan-3-yl}phenyl)-4-(trifluoromethyl)-2,3-dihydro-1H-isoindol-1-one]",≤ 100,,,,< 100,,,,,,,,,> 7.5,> 7.5,
Cn1cnnc1C(F)(F)[C@](C)(F)c1cccc(N2Cc3c(cc(CN4CC[C@@H](F)C4)cc3C(F)(F)F)C2=O)c1 [Compound 450],≤ 100,,,,< 100,,,,,,,,,2.51 to 5,> 7.5,> 7.5
"Cn1cnnc1CC1(c2cccc(N3Cc4c(cc(CN5CC[C@@H](C#N)C5)cc4C(F)(F)F)C3=O)c2)COC1 [Compound 421, (R)-1-((2-(3-(3-((4-methyl-4H-1,2,4-triazol-3-yl)methyl)oxetan-3-yl)phenyl)-3-oxo-7-(trifluoromethyl)isoindolin-5-yl)methyl)pyrrolidine-3-carbonitrile]",≤ 100,,,,< 100,,,,,,,,,5 to 7.5,> 7.5,> 7.5
"C[C@@H](c1cc2c(c(C(F)(F)F)c1)CN(c1cccc(C3(Cc4nncn4C)COC3)c1)C2=O)N1CC[C@H](F)C1 [Compound 412, 6-((S)-1-((S)-3-fluoropyrrolidin-1-yl)ethyl)-2-(3-(3-((4-methyl-4H-1,2,4-triazol-3-yl)methyl)oxetan-3-yl)phenyl)-4-(trifluoromethyl)isoindolin-1-one]",≤ 100,,,,< 100,,,,,,,,,> 7.5,> 7.5,> 7.5
"Cn1cnnc1CC1(c2cccc(N3Cc4c(cc(CN5CCC6(CC6)C5)cc4C(F)(F)F)C3=O)c2)COC1 [Compound 520, 6-((5-azaspiro[2.4]heptan-5-yl)methyl)-2-(3-(3-((4-methyl-4H-1,2,4-triazol-3-yl)methyl)oxetan-3-yl)phenyl)-4-(trifluoromethyl)isoindolin-1-one]",≤ 100,,,,< 100,,,,,,,,,> 7.5,> 7.5,
